Measurements as given in ChEMBL document CHEMBL3714769, “Heterocyclic compounds for the inhibition of pask” (2014).

Biological target: PAS domain-containing serine/threonine-protein kinase (Homo sapiens, UniProt Q96RG2)
Experiment: Inhibition of human recombinant PASK using Ulight-peptide substrate incubated for 2 hrs by TR-FRET assay

Sequence of PAS domain-containing serine/threonine-protein kinase (Q96RG2 whole entry, the tested form may be a part): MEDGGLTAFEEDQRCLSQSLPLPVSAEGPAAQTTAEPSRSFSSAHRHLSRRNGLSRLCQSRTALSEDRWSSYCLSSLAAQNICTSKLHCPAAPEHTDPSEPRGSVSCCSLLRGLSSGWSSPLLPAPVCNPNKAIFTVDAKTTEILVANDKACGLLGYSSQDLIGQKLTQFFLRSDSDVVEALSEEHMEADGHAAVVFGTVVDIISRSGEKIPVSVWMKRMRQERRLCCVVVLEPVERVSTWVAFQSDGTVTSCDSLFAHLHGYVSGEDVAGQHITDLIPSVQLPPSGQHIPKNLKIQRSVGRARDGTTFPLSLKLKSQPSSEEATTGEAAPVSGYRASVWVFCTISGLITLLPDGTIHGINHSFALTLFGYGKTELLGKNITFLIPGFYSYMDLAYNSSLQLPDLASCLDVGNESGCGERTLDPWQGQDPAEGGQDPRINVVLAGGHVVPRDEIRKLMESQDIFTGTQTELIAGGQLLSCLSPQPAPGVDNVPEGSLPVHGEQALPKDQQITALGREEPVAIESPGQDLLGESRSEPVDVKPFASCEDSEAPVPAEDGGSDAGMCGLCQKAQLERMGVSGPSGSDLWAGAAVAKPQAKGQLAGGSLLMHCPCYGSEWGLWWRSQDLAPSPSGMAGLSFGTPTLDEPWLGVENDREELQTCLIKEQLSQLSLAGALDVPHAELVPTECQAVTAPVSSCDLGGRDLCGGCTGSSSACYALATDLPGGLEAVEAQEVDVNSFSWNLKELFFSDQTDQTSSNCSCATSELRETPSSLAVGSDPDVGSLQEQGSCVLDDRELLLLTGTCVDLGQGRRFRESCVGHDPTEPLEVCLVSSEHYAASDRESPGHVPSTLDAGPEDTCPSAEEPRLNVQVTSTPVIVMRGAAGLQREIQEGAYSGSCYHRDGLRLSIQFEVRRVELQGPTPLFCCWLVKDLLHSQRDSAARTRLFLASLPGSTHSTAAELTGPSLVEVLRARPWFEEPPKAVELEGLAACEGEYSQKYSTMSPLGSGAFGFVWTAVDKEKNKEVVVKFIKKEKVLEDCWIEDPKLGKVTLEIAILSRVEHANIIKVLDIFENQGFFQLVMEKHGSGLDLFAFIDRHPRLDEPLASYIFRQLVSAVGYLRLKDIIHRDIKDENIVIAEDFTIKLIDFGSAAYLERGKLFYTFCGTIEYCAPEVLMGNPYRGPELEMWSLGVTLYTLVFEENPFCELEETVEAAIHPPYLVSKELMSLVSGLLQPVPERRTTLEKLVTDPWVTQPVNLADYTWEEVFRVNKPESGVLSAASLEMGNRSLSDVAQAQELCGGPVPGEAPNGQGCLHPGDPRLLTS

SMILES	IC50
O=c1cc(-c2ccc3[nH]nnc3c2)[nH]c2nc(-c3ccc(Cl)c(Cl)c3)nn12	≤ 10 µM
COc1cc(-c2cc(=O)n3nc(-c4ccc(F)cc4)nc3[nH]2)ccc1Cl	≤ 10 µM
